From patent US20260232670A1, “TYRO3 SELECTIVE INHIBITORS AND USES THEREOF” (THE UNIVERSITY OF NORTH CAROLINA AT CHAPEL HILL, priority 2023, published 2026)

How the values were obtained:
Type in all cases: biochemical
TYRO3 = target: T1, TYRO3 (Homo sapiens, UniProt Q06418); assay: Microfluidic capillary electrophoresis (MCE) kinase activity assay, Tyro3
T1 sequence (Q06418 41-890): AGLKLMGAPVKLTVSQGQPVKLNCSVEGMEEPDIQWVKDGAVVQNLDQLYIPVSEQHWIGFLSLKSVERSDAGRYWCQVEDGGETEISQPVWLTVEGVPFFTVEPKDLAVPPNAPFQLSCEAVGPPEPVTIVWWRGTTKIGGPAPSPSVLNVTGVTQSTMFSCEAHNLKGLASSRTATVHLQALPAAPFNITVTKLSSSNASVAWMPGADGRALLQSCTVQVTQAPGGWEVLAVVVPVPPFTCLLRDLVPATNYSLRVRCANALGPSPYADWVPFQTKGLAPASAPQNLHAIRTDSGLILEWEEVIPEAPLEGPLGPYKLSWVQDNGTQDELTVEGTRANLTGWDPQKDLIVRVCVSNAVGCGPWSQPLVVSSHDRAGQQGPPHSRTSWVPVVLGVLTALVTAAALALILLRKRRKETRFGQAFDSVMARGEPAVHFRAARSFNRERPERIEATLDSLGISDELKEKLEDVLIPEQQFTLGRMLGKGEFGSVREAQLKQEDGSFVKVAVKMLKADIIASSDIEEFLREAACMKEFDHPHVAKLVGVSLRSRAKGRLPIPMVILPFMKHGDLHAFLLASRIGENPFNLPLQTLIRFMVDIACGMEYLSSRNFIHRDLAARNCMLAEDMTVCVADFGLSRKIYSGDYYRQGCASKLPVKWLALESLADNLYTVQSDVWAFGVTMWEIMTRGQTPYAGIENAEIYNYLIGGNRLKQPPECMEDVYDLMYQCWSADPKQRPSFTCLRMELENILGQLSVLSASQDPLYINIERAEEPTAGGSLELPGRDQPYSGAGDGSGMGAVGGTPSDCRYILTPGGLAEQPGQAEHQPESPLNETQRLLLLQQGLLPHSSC
Protocol: (§1) All reactions were terminated by addition of 20 μL of 70 mM EDTA. After a 180 min incubation, phosphorylated and unphosphorylated substrate peptides (Table 6) were separated in buffer supplemented with 1× CR-8 on a LabChip EZ Reader equipped with a 12-sipper chip. Data were analyzed using EZ Reader software.

MERTK = target: T2, MERTK (Homo sapiens, UniProt Q12866); assay: Microfluidic capillary electrophoresis (MCE) kinase activity assay, Mer
T2 sequence (Q12866 21-999): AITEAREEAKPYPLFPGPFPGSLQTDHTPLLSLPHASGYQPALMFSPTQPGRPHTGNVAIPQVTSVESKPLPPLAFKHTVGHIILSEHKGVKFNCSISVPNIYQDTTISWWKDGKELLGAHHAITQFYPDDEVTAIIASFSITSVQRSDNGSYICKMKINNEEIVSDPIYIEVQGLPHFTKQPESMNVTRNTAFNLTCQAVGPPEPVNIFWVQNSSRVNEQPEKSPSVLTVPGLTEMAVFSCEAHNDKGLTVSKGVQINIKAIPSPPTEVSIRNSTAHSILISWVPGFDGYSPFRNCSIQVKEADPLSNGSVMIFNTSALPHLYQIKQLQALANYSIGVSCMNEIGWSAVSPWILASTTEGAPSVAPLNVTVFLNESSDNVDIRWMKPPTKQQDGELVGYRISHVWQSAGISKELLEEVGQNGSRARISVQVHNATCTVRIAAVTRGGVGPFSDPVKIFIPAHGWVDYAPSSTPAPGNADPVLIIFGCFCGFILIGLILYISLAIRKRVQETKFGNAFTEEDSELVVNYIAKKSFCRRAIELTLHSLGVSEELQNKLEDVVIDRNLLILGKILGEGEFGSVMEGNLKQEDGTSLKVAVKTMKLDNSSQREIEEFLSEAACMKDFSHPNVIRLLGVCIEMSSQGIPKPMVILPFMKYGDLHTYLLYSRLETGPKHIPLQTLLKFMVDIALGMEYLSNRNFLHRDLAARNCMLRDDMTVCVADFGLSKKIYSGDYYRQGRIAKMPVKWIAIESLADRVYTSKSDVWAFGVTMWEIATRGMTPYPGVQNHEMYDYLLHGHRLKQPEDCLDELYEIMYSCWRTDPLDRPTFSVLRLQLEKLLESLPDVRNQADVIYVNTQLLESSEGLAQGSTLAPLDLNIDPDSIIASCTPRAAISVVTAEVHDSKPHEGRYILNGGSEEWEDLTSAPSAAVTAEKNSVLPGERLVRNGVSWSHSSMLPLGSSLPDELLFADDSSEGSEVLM
Protocol: as §1

AXL = target: T3, AXL (Homo sapiens, UniProt P30530); assay: Microfluidic capillary electrophoresis (MCE) kinase activity assay, Axl
T3 sequence (P30530 26-894): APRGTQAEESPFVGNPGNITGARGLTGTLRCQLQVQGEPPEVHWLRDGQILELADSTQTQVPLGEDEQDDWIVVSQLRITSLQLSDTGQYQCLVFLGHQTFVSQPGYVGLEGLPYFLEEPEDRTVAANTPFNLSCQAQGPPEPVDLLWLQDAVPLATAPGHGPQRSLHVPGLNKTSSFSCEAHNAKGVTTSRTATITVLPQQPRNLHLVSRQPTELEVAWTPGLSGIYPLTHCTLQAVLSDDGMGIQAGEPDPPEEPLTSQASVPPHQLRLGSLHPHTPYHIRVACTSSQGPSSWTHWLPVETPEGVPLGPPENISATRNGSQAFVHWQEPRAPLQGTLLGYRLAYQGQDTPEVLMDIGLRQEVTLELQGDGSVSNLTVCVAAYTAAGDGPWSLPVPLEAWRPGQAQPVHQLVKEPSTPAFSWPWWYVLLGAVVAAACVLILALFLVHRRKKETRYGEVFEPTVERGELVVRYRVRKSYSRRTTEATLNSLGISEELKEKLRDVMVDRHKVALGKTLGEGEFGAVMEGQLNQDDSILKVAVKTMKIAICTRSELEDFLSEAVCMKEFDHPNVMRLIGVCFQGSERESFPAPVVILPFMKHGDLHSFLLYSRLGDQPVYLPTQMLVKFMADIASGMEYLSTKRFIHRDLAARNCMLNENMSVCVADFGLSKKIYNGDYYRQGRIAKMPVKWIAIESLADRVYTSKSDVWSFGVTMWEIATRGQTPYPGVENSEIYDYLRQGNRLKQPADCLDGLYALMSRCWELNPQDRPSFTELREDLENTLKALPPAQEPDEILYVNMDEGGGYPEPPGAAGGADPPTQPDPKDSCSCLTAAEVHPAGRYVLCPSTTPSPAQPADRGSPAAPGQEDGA
Protocol: as §1

Row | SMILES | IC50 (TYRO3; Table 2, MCE assay, ATP at Km) | IC50 (MERTK; Table 2, MCE assay, ATP at Km) | IC50 (AXL; Table 2, MCE assay, ATP at Km) | other results
1 | CN1CCN(Cc2ccc(-c3cn([C@H]4CC[C@H](O)CC4)c4nc(Nc5cc(F)cc(Cl)c5)ncc34)cn2)CC1 [Compound 172] | – | – | – | IC50 (TYRO3; Table 12): < 10 nM; IC50 (MERTK; Table 12): < 10 nM
2 | CN1CCC(Nc2ccc(-c3cn([C@H]4CC[C@H](O)CC4)c4nc(Nc5cc(F)cc(Cl)c5)ncc34)cc2)CC1 [Compound 56] | – | – | – | IC50 (TYRO3; Table 8): < 10 nM; IC50 (MERTK; Table 8): < 10 nM
3 | CN1CCN(Cc2ccc(-c3cn([C@H]4CC[C@H](NC(=O)OC(C)(C)C)CC4)c4nc(Nc5cc(C(F)(F)F)cc(C(F)(F)F)c5)ncc34)cc2)CC1 [Compound 161] | – | – | – | IC50 (TYRO3; Table 10): 10 to 100 nM
4 | CC(C)(C)OC(=O)N1CCN(Cc2ccc(-c3cn([C@H]4CC[C@H](O)CC4)c4nc(Nc5cc(C(F)(F)F)cc(C(F)(F)F)c5)ncc34)cc2)CC1 [Compound 26] | 10 to 100 nM | 1000 to 30000 nM | 1000 to 30000 nM | –
5 | CN1CCN(Cc2ccc(-c3cn(C4CCOCC4)c4nc(Nc5cc(F)cc(Cl)c5)ncc34)cc2)CC1 [Compound 160] | – | – | – | IC50 (TYRO3; Table 10): < 10 nM; IC50 (MERTK; Table 10): < 10 nM
6 | CN1CCN(Cc2ccc(-c3cn([C@H]4CC[C@H](O)CC4)c4nc(Nc5cc(F)cc(Cl)c5)ncc34)cc2)CC1 [Compound 7] | < 10 nM | < 10 nM | 10 to 100 nM | –
7 | CN1CCN(Cc2ccc(-c3cn([C@H]4CC[C@H](O)CC4)c4nc(Nc5ccsc5)ncc34)cc2)CC1 [Compound 174] | < 10 nM | < 10 nM | – | –
8 | CN1CCN(Cc2ccc(-c3cn([C@H]4CC[C@H](O)CC4)c4nc(Nc5cc(C(F)(F)F)cc(C(F)(F)F)c5)ncc34)cn2)CC1 [Compound 173] | – | – | – | IC50 (TYRO3; Table 12): < 10 nM; IC50 (MERTK; Table 12): 100 to 1000 nM
9 | CN1CCN(Cc2ccc(-c3cn(C4CC(CO)(CO)C4)c4nc(Nc5cc(C(F)(F)F)cc(C(F)(F)F)c5)ncc34)cc2)CC1 [Compound 165] | – | – | – | IC50 (TYRO3; Table 10): < 10 nM; IC50 (MERTK; Table 10): 1000 to 30000 nM
10 | CN1CCN(Cc2ccc(-c3cn([C@H]4CC[C@H](O)CC4)c4nc(Nc5cc(Cl)c(F)c(Cl)c5)ncc34)cc2)CC1 [Compound 8] | < 10 nM | 10 to 100 nM | 10 to 100 nM | –
11 | O[C@H]1CC[C@H](n2cc(-c3ccc(CNCCN4CCOCC4)cc3)c3cnc(Nc4cc(C(F)(F)F)cc(C(F)(F)F)c4)nc32)CC1 [Compound 19] | < 10 nM | 100 to 1000 nM | 100 to 1000 nM | –
12 | CN1CCN(Cc2ccc(-c3cn([C@H]4CC[C@H](O)CC4)c4nc(Nc5cccnc5)ncc34)cc2)CC1 [Compound 64] | < 10 nM | < 10 nM | < 10 nM | –
13 | CN1CCN(C(=O)c2ccc(-c3cn([C@H]4CC[C@H](O)CC4)c4nc(Nc5cc(F)cc(Cl)c5)ncc34)cc2)CC1 [Compound 156] | – | – | – | IC50 (TYRO3; Table 9): < 10 nM; IC50 (MERTK; Table 9): < 10 nM; IC50 (AXL; Table 9): 10 to 100 nM
14 | O[C@H]1CC[C@H](n2cc(-c3ccc(CN4CCC(F)(F)CC4)cc3)c3cnc(Nc4cc(F)cc(Cl)c4)nc32)CC1 [Compound 23] | < 10 nM | 10 to 100 nM | 100 to 1000 nM | –
15 | O[C@H]1CC[C@H](n2cc(-c3ccc(CN4CCC(F)(F)CC4)cc3)c3cnc(Nc4cc(C(F)(F)F)cc(C(F)(F)F)c4)nc32)CC1 [Compound 10] | 10 to 100 nM | 100 to 1000 nM | 100 to 1000 nM | –
16 | CN1CCN(Cc2ccc(-c3cc(C4CCC(=O)CC4)n4nc(Nc5cc(F)cc(Cl)c5)ncc34)cc2)CC1 [Compound 171, 4-(2-((3-chloro-5-fluorophenyl)amino)-5-(4-((4-methylpiperazin-1-yl)methyl)phenyl)pyrrolo[2,1-f][1,2,4]triazin-7-yl)cyclohexan-1-one] | – | – | – | IC50 (TYRO3; Table 11): < 10 nM; IC50 (MERTK; Table 11): 10 to 100 nM
17 | CN(C)C1CCN(Cc2ccc(-c3cn([C@H]4CC[C@H](O)CC4)c4nc(Nc5cc(F)cc(Cl)c5)ncc34)cc2)CC1 [Compound 22] | < 10 nM | < 10 nM | 10 to 100 nM | –
18 | CN1CCCN(Cc2ccc(-c3cn([C@H]4CC[C@H](O)CC4)c4nc(Nc5cc(F)cc(Cl)c5)ncc34)cc2)CC1 [Compound 24] | < 10 nM | < 10 nM | 10 to 100 nM | –
19 | CCN1CCN(Cc2ccc(-c3cn([C@H]4CC[C@H](O)CC4)c4nc(Nc5cc(F)cc(Cl)c5)ncc34)cc2)CC1 [Compound 30] | < 10 nM | < 10 nM | 10 to 100 nM | –
20 | CN1CCN(Cc2ccc(-c3cn([C@H]4CC[C@H](O)CC4)c4nc(Nc5cncc(Cl)c5)ncc34)cc2)CC1 [Compound 175] | < 10 nM | < 10 nM | – | –
21 | CN1CCN(Cc2ccc(-c3cn([C@H]4CC[C@H](O)CC4)c4nc(Nc5cc(Cl)cc(C(F)(F)F)c5)ncc34)cc2)CC1 [Compound 148] | < 10 nM | 10 to 100 nM | – | –
22 | CN1CCN(Cc2ccc(-c3cn([C@H]4CC[C@H](NC(=O)OC(C)(C)C)CC4)c4nc(Nc5cc(F)cc(Cl)c5)ncc34)cc2)CC1 [Compound 163] | – | – | – | IC50 (TYRO3; Table 10): 10 to 100 nM; IC50 (MERTK; Table 10): 100 to 1000 nM
23 | CN1CCN(Cc2ccc(-c3cc(C4CCC5(CC4)OCCO5)n4nc(Nc5cc(F)cc(Cl)c5)ncc34)cc2)CC1 [Compound 170, N-(3-chloro-5-fluorophenyl)-5-(4-((4-methylpiperazin-1-yl)methyl)phenyl)-7-(1,4-dioxaspiro[4.5]decan-8-yl)pyrrolo[2,1-f][1,2,4]triazin-2-amine] | – | – | – | IC50 (TYRO3; Table 11): < 10 nM; IC50 (MERTK; Table 11): 10 to 100 nM
24 | CN1CCN(Cc2ccc(-c3cn([C@H]4CC[C@H](O)CC4)c4nc(Nc5cccc(C(F)(F)F)c5)ncc34)cc2)CC1 [Compound 147] | < 10 nM | < 10 nM | – | –
25 | CC1CCN(Cc2ccc(-c3cn([C@H]4CC[C@H](O)CC4)c4nc(Nc5cc(F)cc(Cl)c5)ncc34)cc2)CC1 [Compound 151] | < 10 nM | < 10 nM | – | –
26 | CN1CCN(S(=O)(=O)c2ccc(-c3cn([C@H]4CC[C@H](O)CC4)c4nc(Nc5cc(F)cc(Cl)c5)ncc34)cc2)CC1 [Compound 63] | – | – | – | IC50 (TYRO3; Table 9): < 10 nM; IC50 (MERTK; Table 9): < 10 nM
27 | CN1CCN(Cc2ccc(-c3cn([C@H]4CC[C@H](N)CC4)c4nc(Nc5cc(F)cc(Cl)c5)ncc34)cc2)CC1 [Compound 164] | – | – | – | IC50 (TYRO3; Table 10): < 10 nM; IC50 (MERTK; Table 10): < 10 nM
28 | CN1CCN(Cc2ccc(-c3cn([C@H]4CC[C@H](O)CC4)c4nc(Nc5cc(F)cc(C(F)(F)F)c5)ncc34)cc2)CC1 [Compound 149] | < 10 nM | < 10 nM | – | –
